Measurements from patent publication US12581252B2, “Substituted pyrrolo[3,4-b]pyridines as PI3K-α inhibitors” (Relay Therapeutics, Inc., priority 2020, dated 2026).

Molecular target: H1047R PIK3CA enzyme (Homo sapiens, UniProt P42336, H1047R)
Assay: ADP-Glo Biochemical PIK3CA Kinase Assay

Chain of H1047R PIK3CA enzyme (P42336 whole entry H1047R): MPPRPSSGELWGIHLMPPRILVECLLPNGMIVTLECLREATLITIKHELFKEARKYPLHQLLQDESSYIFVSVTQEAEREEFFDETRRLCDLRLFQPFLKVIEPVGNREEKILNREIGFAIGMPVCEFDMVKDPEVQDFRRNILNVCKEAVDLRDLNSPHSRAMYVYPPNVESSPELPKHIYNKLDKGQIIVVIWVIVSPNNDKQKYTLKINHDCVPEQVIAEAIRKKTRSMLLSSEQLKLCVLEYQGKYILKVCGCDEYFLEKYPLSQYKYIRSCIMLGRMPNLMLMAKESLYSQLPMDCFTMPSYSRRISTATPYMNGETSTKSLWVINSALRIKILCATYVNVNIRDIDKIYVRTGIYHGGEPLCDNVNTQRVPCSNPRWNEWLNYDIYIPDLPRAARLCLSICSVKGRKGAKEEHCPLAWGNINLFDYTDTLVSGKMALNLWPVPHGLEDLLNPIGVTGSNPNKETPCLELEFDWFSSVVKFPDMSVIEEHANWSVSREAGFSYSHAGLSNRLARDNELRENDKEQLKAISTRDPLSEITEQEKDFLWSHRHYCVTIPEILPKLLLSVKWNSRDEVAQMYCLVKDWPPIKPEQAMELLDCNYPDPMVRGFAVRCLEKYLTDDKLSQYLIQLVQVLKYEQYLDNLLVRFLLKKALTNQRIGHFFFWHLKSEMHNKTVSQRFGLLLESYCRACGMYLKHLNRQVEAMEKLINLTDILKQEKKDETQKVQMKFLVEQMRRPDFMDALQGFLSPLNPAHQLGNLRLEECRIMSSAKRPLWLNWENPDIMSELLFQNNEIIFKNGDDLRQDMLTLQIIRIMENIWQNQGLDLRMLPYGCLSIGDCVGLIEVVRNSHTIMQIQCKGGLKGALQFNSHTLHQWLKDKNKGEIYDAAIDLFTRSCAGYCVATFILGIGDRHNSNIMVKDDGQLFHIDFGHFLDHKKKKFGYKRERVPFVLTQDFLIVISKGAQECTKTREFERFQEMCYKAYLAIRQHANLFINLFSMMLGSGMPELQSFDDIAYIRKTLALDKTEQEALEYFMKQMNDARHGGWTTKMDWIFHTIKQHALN
Chain of H1047R PIK3CA enzyme (P27986 whole entry partner): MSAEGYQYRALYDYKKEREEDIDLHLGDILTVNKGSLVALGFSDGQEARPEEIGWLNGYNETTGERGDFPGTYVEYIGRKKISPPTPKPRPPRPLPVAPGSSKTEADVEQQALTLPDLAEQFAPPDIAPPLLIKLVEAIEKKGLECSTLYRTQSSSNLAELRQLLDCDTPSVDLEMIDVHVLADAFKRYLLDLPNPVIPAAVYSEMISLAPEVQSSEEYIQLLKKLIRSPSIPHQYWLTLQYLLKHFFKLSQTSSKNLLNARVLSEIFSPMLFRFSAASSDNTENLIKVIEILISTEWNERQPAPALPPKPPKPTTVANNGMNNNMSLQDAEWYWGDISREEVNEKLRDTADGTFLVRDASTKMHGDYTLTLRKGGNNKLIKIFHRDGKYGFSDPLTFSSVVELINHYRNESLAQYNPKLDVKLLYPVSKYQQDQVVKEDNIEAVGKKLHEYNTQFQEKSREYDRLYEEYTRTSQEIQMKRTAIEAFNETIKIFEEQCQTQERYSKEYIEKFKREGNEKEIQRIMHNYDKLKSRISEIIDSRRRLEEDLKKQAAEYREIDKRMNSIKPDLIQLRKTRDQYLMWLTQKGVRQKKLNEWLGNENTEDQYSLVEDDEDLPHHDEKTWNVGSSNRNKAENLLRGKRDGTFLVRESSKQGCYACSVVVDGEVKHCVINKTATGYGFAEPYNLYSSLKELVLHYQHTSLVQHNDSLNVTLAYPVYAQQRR

Row | IC50 | Compound
1 | 10 to 100 µM | O=C(Nc1cccc2c1C(c1cc(F)ccc1Cl)NC2=O)c1ccc(O)c(C(F)(F)F)c1 (stereo not shown) [Compound I-2363]
2 | ≤ 0.1 µM | O=C(Nc1cc(B(O)O)cc2c1C(c1cc(F)ccc1Cl)NC2=O)c1cc(F)cc(C(F)(F)F)c1 (stereo not shown) [Compound I-362]
3 | 10 to 100 µM | CC(C)c1cc(N)nn1C(=O)Nc1cccc2c1C(c1cc(F)ccc1Cl)NC2=O (stereo not shown) [Compound I-2466]
4 | 1 to 10 µM | O=C1N[C@H](c2cc(F)ccc2Cl)c2c(NC(=O)N3C[C@](O)(C(F)(F)F)c4cc(F)ccc43)ccc(-n3nccn3)c21 (single isomer, unassigned) [Compound I-2526]
5 | ≤ 0.1 µM | COC(=O)c1cc(NC(=O)c2cc(F)cc(C(F)(F)F)c2)c2c(c1)C(=O)NC2c1cc(F)ccc1Cl (stereo not shown) [Compound I-373]
6 | ≤ 0.1 µM | Cc1ccccc1C1NC(=O)c2c(C(N)=O)ccc(NC(=O)c3csc4ccccc34)c21 (stereo not shown) [Compound I-149, 7-(Benzo[b]thiophene-3-carboxamido)-3-oxo-1-(o-tolyl)isoindoline-4-carboxamide]
7 | 1 to 10 µM | O=C1NC(c2cc(F)ccc2Cl)c2c(NC(=O)c3cc(C(F)(F)F)cc(F)c3C3(O)COC3)cccc21 (stereo not shown) [Compound I-1114]
8 | ≤ 0.1 µM | C[C@H](C#N)n1cc(-c2cc(NC(=O)c3cc(F)cc(C(F)(F)F)c3)c3c(c2)C(=O)N[C@H]3c2cc(F)ccc2Cl)cn1 (single isomer, unassigned) [Compound I-1916]
9 | 10 to 100 µM | O=C1N[C@H](c2cc(F)ccc2Cl)c2c(N[C@H]3CCCNC3)cc(-c3ccc4ncnn4c3)cc21 (racemic) [Compound I-2023]
10 | 0.1 to 0.5 µM | O=C1NC(c2cc(F)ccc2Cl)c2c(NC(=O)C3CCCC(C(F)(F)F)C3)cc(Br)cc21 (mixture of isomers) [Compound I-1323]
11 | 0.1 to 0.5 µM | Cn1ccc2cc(-c3cc(NC(=O)c4cc(F)cc(C(F)(F)F)c4)c4c(c3)C(=O)NC4c3cc(F)ccc3Cl)ccc21 (stereo not shown) [Compound I-853]
12 | 10 to 100 µM | Cc1ccccc1C1NC(=O)c2cccc(NC(=O)c3cc(Br)sn3)c21 (stereo not shown) [Compound I-453]
13 | 10 to 100 µM | O=C(Nc1cc(Br)cc2c1C(c1cc(F)ccc1Cl)NC2=O)c1ccnc(C(F)(F)F)c1F (stereo not shown) [Compound I-607]
14 | ≤ 0.1 µM | O=C(Nc1cc(Br)cc2c1[C@H](c1cc(Cl)ccc1Cl)NC2=O)c1cc(F)cc(C(F)(F)F)c1 [Compound I-765]
15 | 10 to 100 µM | CC(C)(C)N[C@H]1NC(=O)c2cccc(NC(=O)c3cc(F)cc(C(F)(F)F)c3)c21 (single isomer, unassigned) [Compound I-2248]
16 | 0.1 to 0.5 µM | Cc1ccccc1[C@@H]1NC(=O)c2nccc(NC(=O)N3C[C@H](C)c4ccccc43)c21 (single isomer, unassigned) [Compound I-300]
17 | 1 to 10 µM | Cc1nccn1-c1cc(NC(=O)N2C[C@@](O)(C(F)(F)F)c3cc(F)ccc32)c2c(c1)C(=O)N[C@H]2c1cc(F)ccc1Cl (single isomer, unassigned) [Compound I-2663]
18 | ≤ 0.1 µM | CN1C[C@H](COc2cc(NC(=O)c3cc(F)cc(C(F)(F)F)c3)c3c(c2)C(=O)N[C@H]3c2cc(F)ccc2Cl)CC1=O (single isomer, unassigned) [Compound I-1522]
19 | 1 to 10 µM | O=C1N[C@H](c2cc(F)ccc2Cl)c2c(NC(=O)N3C[C@H](O)c4cc(F)ccc43)cc(-n3ccccc3=O)cc21 (single isomer, unassigned) [Compound I-2353]
20 | 0.5 to 1 µM | O=C1NC(c2cc(F)ccc2Cl)c2c(NC(=O)N3CCCC34CCCCC4)cccc21 (stereo not shown) [Compound I-2430]

Row | IC50 | Compound
21 | ≤ 0.1 µM | O=C(Nc1cc(N2CC(F)(F)C2)cc2c1C(c1cc(F)ccc1Cl)NC2=O)c1cc(F)cc(C(F)(F)F)c1 (stereo not shown) [Compound I-370]
22 | 10 to 100 µM | O=C(Nc1cccc2c1C(C(=O)NC1CCCCC1)NC2=O)c1cc(F)cc(C(F)(F)F)c1 (stereo not shown) [Compound I-2054]
23 | 10 to 100 µM | O=C1NC(c2cc(F)ccc2Cl)c2c(Nc3cc4ccccn4n3)cc(-c3ccc4ncnn4c3)cc21 (stereo not shown) [Compound I-1679]
24 | 1 to 10 µM | N[C@]1(C(F)(F)F)CN(C(=O)Nc2cccc3c2[C@@H](c2cc(F)ccc2Cl)NC3=O)c2ccc(F)cc21 (racemic) [Compound I-2471]
25 | 1 to 10 µM | O=C1NC(c2cc(F)ccc2Cl)c2c(NC(=O)N3CCc4cc(Cl)ccc43)cc(Br)cc21 (stereo not shown) [Compound I-1269]
26 | 1 to 10 µM | [2H]C1([2H])N(C(=O)Nc2cccc3c2[C@@H](c2cc(F)ccc2Cl)NC3=O)c2ccc(F)cc2[C@@]1(O)C(F)(F)F (single isomer, unassigned) [Compound I-2594]
27 | 0.1 to 0.5 µM | Cc1ccccc1C1NC(=O)c2cc(CN)cc(NC(=O)c3cc(F)cc(C(F)(F)F)c3)c21 (stereo not shown) [Compound I-260]
28 | ≤ 0.1 µM | COC(C)(C)Cc1cc(NC(=O)c2cc(F)cc(C(F)(F)F)c2)c2c(c1)C(=O)NC2c1cc(F)ccc1Cl (stereo not shown) [Compound I-820]
29 | ≤ 0.1 µM | Cc1cnccc1-c1cc(NC(=O)c2cc(F)cc(C(F)(F)F)c2)c2c(c1)C(=O)NC2c1cc(F)ccc1Cl (stereo not shown) [Compound I-890]
30 | 0.5 to 1 µM | Cc1ccccc1C1NC(=O)c2cccc(NC(=O)c3cc(F)cc(Br)c3)c21 (stereo not shown) [Compound I-391]
31 | 10 to 100 µM | O=C(Nc1cccc2c1[C@@H](C1CC1)NC2=O)c1cc(F)cc(C(F)(F)F)c1 (single isomer, unassigned) [Compound I-2220]
32 | ≤ 0.1 µM | O=C(Nc1cc(-c2ccn3nncc3c2)cc2c1C(c1cc(F)ccc1Cl)NC2=O)c1cc(F)cc(C(F)(F)F)c1 (stereo not shown) [Compound I-1670]
33 | 10 to 100 µM | O=C1N[C@@H](c2cc(F)ccc2Cl)c2c1cc(-c1ccc3ncnn3c1)cc2S(=O)(=O)Cc1ccccc1 (single isomer, unassigned) [Compound I-1906]
34 | ≤ 0.1 µM | O=C1NC(c2ccc(F)cc2Cl)c2c(NC(=O)c3csc4ccccc34)cccc21 (stereo not shown) [Compound I-102]
35 | 1 to 10 µM | O=C1NC(c2cc(F)ccc2Cl)c2c(NC(=O)C3CCCC(F)(F)C3)cc(-c3ccc4ncnn4c3)cc21 (stereo not shown) [Compound I-1750]
36 | ≤ 0.1 µM | N#Cc1cnc2ccc(-c3cc(NC(=O)c4cc(F)cc(C(F)(F)F)c4)c4c(c3)C(=O)N[C@H]4c3cc(F)ccc3Cl)cn12 [Compound I-1443]
37 | 1 to 10 µM | O=C(Nc1cc(-c2ccn3nc(Cl)nc3c2)cc2c1[C@@H](c1cc(F)ccc1Cl)NC2=O)c1cc(F)cc(C(F)(F)F)c1 [Compound I-1695]
38 | 1 to 10 µM | O=C1N[C@H](c2cc(F)ccc2Cl)c2c(N[C@H]3CCOc4ccccc43)cc(-c3cnn(C(F)F)c3)nc21 (single isomer, unassigned) [Compound I-2159]
39 | 0.1 to 0.5 µM | O=C(Nc1cc(C2(O)COCC2O)cc2c1C(c1cc(F)ccc1Cl)NC2=O)c1cc(F)cc(C(F)(F)F)c1 (stereo not shown) [Compound I-1141]
40 | ≤ 0.1 µM | O=C(Nc1cc(-c2ccc3nnnn3c2)cc2c1[C@H](c1cc(F)ccc1Cl)NC2=O)c1cc(F)cc(C(F)(F)F)c1 [Compound I-1453]

Row | IC50 | Compound
41 | ≤ 0.1 µM | N#C[C@H]1C[C@@H](c2cc(NC(=O)c3cc(F)cc(C(F)(F)F)c3)c3c(c2)C(=O)N[C@@H]3c2cc(F)ccc2Cl)C1 (single isomer, unassigned) [Compound I-1327]
42 | 1 to 10 µM | Cc1cn(-c2cc(NC(=O)N3C[C@@](O)(C(F)(F)F)c4cc(F)ccc43)c3c(c2)C(=O)N[C@H]3c2cc(F)ccc2Cl)cn1 (single isomer, unassigned) [Compound I-2638]
43 | ≤ 0.1 µM | O=C(Nc1cc(N2CCC2)nc2c1C(c1cc(F)ccc1Cl)NC2=O)c1cc(F)cc(C(F)(F)F)c1 (stereo not shown) [Compound I-441]
44 | ≤ 0.1 µM | Nc1nc2cc(-c3cc(NC(=O)c4cc(F)cc(C(F)(F)F)c4)c4c(c3)C(=O)NC4c3cc(F)ccc3Cl)ccc2o1 (stereo not shown) [Compound I-1531]
45 | ≤ 0.1 µM | N#Cc1cnn2ccc(-c3cc(NC(=O)c4cc(F)cc(C(F)(F)F)c4)c4c(c3)C(=O)NC4c3cc(F)ccc3Cl)cc12 (stereo not shown) [Compound I-1762]
46 | ≤ 0.1 µM | O=C(Nc1cc(-c2ccc3ncnn3c2)cc2c1[C@H](c1cc(F)ccc1Cl)NC2=O)c1cccc(C(F)(F)F)c1 (stereo in doubt) [Compound I-1121]
47 | ≤ 0.1 µM | O=C(Nc1cc(-c2ccc3nc[nH]c3c2)cc2c1C(c1cc(F)ccc1Cl)NC2=O)c1cc(F)cc(C(F)(F)F)c1 (stereo not shown) [Compound I-1035]
48 | 10 to 100 µM | NS(=O)(=O)c1cc(-c2ccc3ncnn3c2)cc2c1[C@@H](c1cc(F)ccc1Cl)NC2=O [Compound I-2100]
49 | 10 to 100 µM | O=C(Nc1cccc2c1C(c1cc(O)ccc1Cl)NC2=O)c1cc(O)cc(C(F)(F)F)c1 (stereo not shown) [Compound I-415]
50 | ≤ 0.1 µM | O=C(Nc1cc(C#CC2COC2)cc2c1C(c1cc(F)ccc1Cl)NC2=O)c1cc(F)cc(C(F)(F)F)c1 (stereo not shown) [Compound I-1223]
51 | 0.1 to 0.5 µM | N#CCCc1cc(NC(=O)N2C[C@@H](O)c3cc(F)ccc32)c2c(c1)C(=O)N[C@H]2c1cc(F)ccc1Cl (single isomer, unassigned) [Compound I-2347]
52 | 0.1 to 0.5 µM | N#CCc1cc(NC(=O)c2cc(F)cc(C(F)(F)F)c2)c2c(c1)C(=O)N[C@@H]2c1cc(F)ccc1Cl [Compound I-1087]
53 | ≤ 0.1 µM | NC(=O)c1cc(NC(=O)c2cc(F)cc(C(F)(F)F)c2)c2c(c1)C(=O)NC2c1cc(F)ccc1Cl (stereo not shown) [Compound I-555]
54 | ≤ 0.1 µM | Cn1cc(C(=O)Nc2cc(NC(=O)c3cc(F)cc(C(F)(F)F)c3)c3c(c2)C(=O)NC3c2cc(F)ccc2Cl)cn1 (stereo not shown) [Compound I-336]
55 | 10 to 100 µM | O=C1NC(c2cc(F)ccc2Cl)c2c(Nc3nccc4cccnc34)cc(Br)cc21 (stereo not shown) [Compound I-761]
56 | 10 to 100 µM | Cc1ccccc1C1NC(=O)c2nccc(NC(=O)N3CCc4ncccc43)c21 (stereo not shown) [Compound I-199]
57 | 0.5 to 1 µM | N#Cc1cc(-c2cc(NC(=O)c3cc(F)cc(C(F)(F)F)c3)c3c(c2)C(=O)N[C@@H]3c2cc(F)ccc2Cl)cn2ncnc12 [Compound I-1880]
58 | ≤ 0.1 µM | O=C(Nc1cc(N2CCCC2=O)cc2c1C(c1cc(F)ccc1Cl)NC2=O)c1cc(F)cc(C(F)(F)F)c1 (stereo not shown) [Compound I-1273]
59 | ≤ 0.1 µM | O=C(Nc1cc(-c2ccc3nnc(Cl)n3c2)cc2c1[C@H](c1cc(F)ccc1Cl)NC2=O)c1cc(F)cc(C(F)(F)F)c1 [Compound I-1734]
60 | 10 to 100 µM | CN(C)/C=N/c1cc(Br)cc2c1C(c1cc(F)ccc1Br)NC2=O (stereo not shown) [Compound I-326]

Row | Compound | IC50
61 | N#Cc1c(-c2cc(NC(=O)c3cc(F)cc(Cl)c3)c3c(c2)C(=O)N[C@H]3c2cc(F)ccc2Cl)ccc2ncnn12 [Compound I-2063] | 0.5 to 1 µM
